Where two headings read alike, the source gives them in different places.
Tests used:
WDR5 protein = WDR5 protein (Homo sapiens (Human), UniProt P61964); experiment: Surface Plasmon Resonance (SPR) assay; format: binding; settings: SPR; for residence time: τ=1/koff, read-out: Residence Time (t, min)
Procedure: Exemplary compounds of the application were dissolved in 100% DMSO at 10 mM, assayed fresh, and then stored at −20° C. for repeat studies and other experiments. Full length WDR5 with an N-terminal His tag and C-terminal AviTag (Avidity Inc.) was expressed in E. coli with coexpression of BirA to biotin label the protein in vivo. Purification was via Ni-NTA. The purified WDR5 protein has a molecular weight of 41976 Da.
SPR studies were performed using a Biacore™ T200 instrument (GE Health Sciences Inc.). Biotinylated WDR5 protein (approximately 3000RU) was stably captured to streptavidin coupled SA chips according to the manufacture's protocol (GE Health Sciences Inc.). The running buffer used was HBS-EP (20 mM Hepes pH 7.4, 150 mM NaCl, 3 mM EDTA, 0.05% P-20) plus 5% DMSO with a flow rate of 40p1/min. For SPR analysis, 5 different concentrations of each exemplary compound of the application were sprayed into 96 or 384 well plates using an HP D300 digital dispenser. […] Curve fitting and KD calculations were performed with the Biacore T200 Evaluation software (GE Health Sciences Inc).

MLL1-WRAD2 complex = MLL1-WRAD2 complex (Homo sapiens (Human), UniProt P61964); experiment: MLL1-WRAD2 enzyme assay (in vitro methyl transferase assay); format: biochemical; settings: MLL1-WRAD2 assay; read-out: In vitro MLL1 activity (IC50)
Procedure: Reaction was initiated with 1 μM 3H-SAM and incubated for 1 hour at 30° C. Reaction mixture was transferred to P81 filter-paper and washed with PBS before detection.

[1] = Table 1, read-out: WDR5 binding affinity (KD)
[2] = Table 2, read-out: WDR5 binding affinity SPR (KD)

SMILES | Kd (WDR5 protein; [1]) | Kd (WDR5 protein; [2]) | residence time (WDR5 protein) | IC50 (MLL1-WRAD2 complex)
CN1CCN(c2ccc(-c3ccc(OC4CCOCC4)nc3F)cc2NC(=O)c2c[nH]c(=O)cc2C(F)(F)F)CC1 [Example 8, N-(5-(2-fluoro-6-((tetrahydro-2H-pyran-4-yl)oxy)pyridin-3-yl)-2-(4-methylpiperazin-1-yl)phenyl)-6-oxo-4-(trifluoromethyl)-1,6-dihydropyridine-3-carboxamide] | 5 nM | 5 nM | 5.85 min | 1480 nM
Cc1cc(C(=O)Nc2cc(-c3cc(CN4CCOCC4)ccc3F)ccc2N2CCN(C)CC2)cc(C)c1F [Example 11, 4-fluoro-N-(2′-fluoro-4-(4-methylpiperazin-1-yl)-5′-(morpholinomethyl)-[1,1′-biphenyl]-3-yl)-3,5-dimethylbenzamide] | 6 nM | 6 nM | 1.04 min | 4430 nM
CN1CCN(c2ccc(-c3ccc(CNC4CCCC4)cc3F)cc2NC(=O)c2c[nH]c(=O)cc2C(F)(F)F)CC1 [Example 33, N-(4′-((cyclopentylamino)methyl)-2′-fluoro-4-(4-methylpiperazin-1-yl)-[1,1′-biphenyl]-3-yl)-6-oxo-4-(trifluoromethyl)-1,6-dihydropyridine-3-carboxamide] | 23 nM | 23 nM | 1.37 min | 8450 nM
CN1CCN(c2ccc(-c3ccc(CNC4CCCCC4)cc3F)cc2NC(=O)c2c[nH]c(=O)cc2C(F)(F)F)CC1 [Example 34, N-(4′-((cyclohexylamino)methyl)-2′-fluoro-4-(4-methylpiperazin-1-yl)-[1,1′-biphenyl]-3-yl)-6-oxo-4-(trifluoromethyl)-1,6-dihydropyridine-3-carboxamide] | 21 nM | 21 nM | 0.26 min | 13700 nM
CN1CCN(c2ccc(-c3cc(CNC(C)(C)C)ccc3F)cc2NC(=O)c2c[nH]c(=O)cc2C(F)(F)F)CC1 [Example 35, N-(5′-((tert-butylamino)methyl)-2′-fluoro-4-(4-methylpiperazin-1-yl)-[1,1′-biphenyl]-3-yl)-6-oxo-4-(trifluoromethyl)-1,6-dihydropyridine-3-carboxamide] | 9 nM | 9 nM | 4.59 min | 2390 nM
Cc1cc(C(=O)Nc2cc(-c3cc(CN4CCOCC4)ccc3F)ccc2N2CCN(C)CC2)ccc1F [Example 36, 4-fluoro-N-(2′-fluoro-4-(4-methylpiperazin-1-yl)-5′-(morpholinomethyl)-[1,1′-biphenyl]-3-yl)-3-methylbenzamide] | 4 nM | 4 nM | 0.12 min | > 30000 nM
CN(C)Cc1ccc(F)c(-c2ccc(N3CCN(C)CC3)c(NC(=O)c3c[nH]c(=O)cc3C(F)(F)F)c2)c1 [Example 40, N-(5′-((dimethylamino)methyl)-2′-fluoro-4-(4-methylpiperazin-1-yl)-[1,1′-biphenyl]-3-yl)-6-oxo-4-(trifluoromethyl)-1,6-dihydropyridine-3-carboxamide] | 9 nM | 9 nM | 2.52 min | 6290 nM
CN1CCN(c2ccc(-c3cc(CNC4CCC(F)(F)CC4)ccc3F)cc2NC(=O)c2c[nH]c(=O)cc2C(F)(F)F)CC1 [Example 42, N-(5′-(((4,4-difluorocyclohexyl)amino)methyl)-2′-fluoro-4-(4-methylpiperazin-1-yl)-[1,1′-biphenyl]-3-yl)-6-oxo-4-(trifluoromethyl)-1,6-dihydropyridine-3-carboxamide] | 5 nM | 5 nM | 4.43 min | 2280 nM
CN1CCN(c2ccc(-c3cc(CN4CCOCC4)ccc3F)cc2NC(=O)c2cc(O)cc(F)c2F)CC1 [Example 48, 2,3-difluoro-N-(2′-fluoro-4-(4-methylpiperazin-1-yl)-5′-(morpholinomethyl)-[1,1′-biphenyl]-3-yl)-5-hydroxybenzamide] | 93 nM | 93 nM | 0.61 min | 21300 nM
C[C@@H]1CN(c2ccc(-c3cc(CN4CCOCC4)cnc3F)cc2NC(=O)c2c[nH]c(=O)cc2C(F)(F)F)C[C@H](C)N1C [Example 60, N-(5-(2-fluoro-5-(morpholinomethyl)pyridin-3-yl)-2-((3S,5R)-3,4,5-trimethylpiperazin-1-yl)phenyl)-6-oxo-4-(trifluoromethyl)-1,6-dihydropyridine-3-carboxamide] | 7 nM | 7 nM | 9.5 min | 1410 nM
CN1CCN(c2ncc(-c3cc(CN4CCOCC4)ccc3F)cc2NC(=O)c2c[nH]c(=O)cc2C(F)(F)F)CC1 [Example 84, N-(5-(2-fluoro-5-(morpholinomethyl)phenyl)-2-(4-methylpiperazin-1-yl)pyridin-3-yl)-6-oxo-4-(trifluoromethyl)-1,6-dihydropyridine-3-carboxamide] | 22 nM | 22 nM |  | > 30000 nM
CNC(=O)c1ccc(F)c(-c2ccc(N3C[C@@H](C)N(C)[C@@H](C)C3)c(NC(=O)c3c[nH]c(=O)cc3C(F)(F)F)c2)c1 [Example 90, N-(2′-fluoro-5′-(methylcarbamoyl)-4-((3S,5R)-3,4,5-trimethylpiperazin-1-yl)-[1,1′-biphenyl]-3-yl)-6-oxo-4-(trifluoromethyl)-1,6-dihydropyridine-3-carboxamide] | 6.5 nM | 6.4 nM | 3 min | 1090 nM
C[C@@H]1CN(c2ccc(-c3cc(C(=O)NC4CC4)ccc3F)cc2NC(=O)c2c[nH]c(=O)cc2C(F)(F)F)C[C@H](C)N1C [Example 93, N-(5′-(cyclopropylcarbamoyl)-2′-fluoro-4-((3S,5R)-3,4,5-trimethylpiperazin-1-yl)-[1,1′-biphenyl]-3-yl)-6-oxo-4-(trifluoromethyl)-1,6-dihydropyridine-3-carboxamide] | 3.1 nM | 3 nM | 9.6 min | 197 nM
C[C@H]1CN(c2ccc(-c3ncccc3F)cc2NC(=O)c2c[nH]c(=O)cc2C(F)(F)F)CCN1C [Example 96, (S)—N-(2-(3,4-dimethylpiperazin-1-yl)-5-(3-fluoropyridin-2-yl)phenyl)-6-oxo-4-(trifluoromethyl)-1,6-dihydropyridine-3-carboxamide] | 2.6 nM | 3 nM |  | 2530 nM

Next, values leading:

Kd (WDR5 protein; [1]) | Kd (WDR5 protein; [2]) | residence time (WDR5 protein) | IC50 (MLL1-WRAD2 complex) | SMILES
15 nM | 15 nM | 0.3 min | 8980 nM | CN1CCN(c2ccc(-c3cc(CN4CCOCC4)ccc3F)cc2NC(=O)c2cn(C)c(=O)cc2C(F)(F)F)CC1 [Example 13, N-(2′-fluoro-4-(4-methylpiperazin-1-yl)-5′-(morpholinomethyl)-[1,1′-biphenyl]-3-yl)-1-methyl-6-oxo-4-(trifluoromethyl)-1,6-dihydropyridine-3-carboxamide]
262 nM | 262 nM | 0.42 min | 26700 nM | Cc1cc(=O)[nH]cc1C(=O)Nc1cc(-c2cc(CN3CCOCC3)ccc2F)ccc1N1CCN(C)CC1 [Example 29, N-(2′-fluoro-4-(4-methylpiperazin-1-yl)-5′-(morpholinomethyl)-[1,1′-biphenyl]-3-yl)-4-methyl-6-oxo-1,6-dihydropyridine-3-carboxamide]
55 nM | 55 nM | 0.77 min | > 30000 nM | Cc1cc(C(=O)Nc2cc(-c3cc(CN4CCOCC4)ccc3F)ccc2N2CCN(C)CC2)cc(C(F)(F)F)c1F [Example 41, 4-fluoro-N-(2′-fluoro-4-(4-methylpiperazin-1-yl)-5′-(morpholinomethyl)-[1,1′-biphenyl]-3-yl)-3-methyl-5-(trifluoromethyl)benzamide]
7 nM | 7 nM | 3.64 min | 3250 nM | CN1CCN(c2ccc(-c3cc(CN(C)C4COC4)ccc3F)cc2NC(=O)c2c[nH]c(=O)cc2C(F)(F)F)CC1 [Example 43, N-(2′-fluoro-5′-((methyl(oxetan-3-yl)amino)methyl)-4-(4-methylpiperazin-1-yl)-[1,1′-biphenyl]-3-yl)-6-oxo-4-(trifluoromethyl)-1,6-dihydropyridine-3-carboxamide]
69 nM | 69 nM | 0.23 min | > 30000 nM | CN1CCN(c2ccc(-c3cc(CN4CCOCC4)ccc3F)cc2NC(=O)c2ccc(O)cc2C(F)(F)F)CC1 [Example 44, N-(2′-fluoro-4-(4-methylpiperazin-1-yl)-5′-(morpholinomethyl)-[1,1′-biphenyl]-3-yl)-4-hydroxy-2-(trifluoromethyl)benzamide]
7 nM | 7 nM | 2.29 min | 4490 nM | CN1CCN(c2ccc(-c3cc(CN4CCOCC4)cnc3F)cc2NC(=O)c2c[nH]c(=O)cc2C(F)(F)F)CC1 [Example 61, N-(5-(2-fluoro-5-(morpholinomethyl)pyridin-3-yl)-2-(4-methylpiperazin-1-yl)phenyl)-6-oxo-4-(trifluoromethyl)-1,6-dihydropyridine-3-carboxamide]
> 200 nM | > 200 nM |  | 13500 nM | CCN1CCN(c2ccc(-c3cc(CN4CCOCC4)ccc3F)cc2NC(=O)c2c[nH]c(=O)cc2C(F)(F)F)CC1 [Example 62, N-(4-(4-ethylpiperazin-1-yl)-2′-fluoro-5′-(morpholinomethyl)-[1,1′-biphenyl]-3-yl)-6-oxo-4-(trifluoromethyl)-1,6-dihydropyridine-3-carboxamide]
9.4 nM | 9.4 nM | 9.93 min | 7300 nM | CN1CCN(c2ccc(-c3cc(CN4CCOCC4)ccc3F)cc2NC(=O)c2c[nH]c(=O)cc2C(F)(F)F)CC1CO (stereo not shown) [Example 65, N-(2′-fluoro-4-(3-(hydroxymethyl)-4-methylpiperazin-1-yl)-5′-(morpholinomethyl)-[1,1′-biphenyl]-3-yl)-6-oxo-4-(trifluoromethyl)-1,6-dihydropyridine-3-carboxamide]

Reference: patent US11174250B2, “Substituted carboxamides as inhibitors of WDR5 protein-protein binding” (PROPELLON THERAPEUTICS INC., priority 2016, dated 2021)
